Assay results: US7846928B2, “Substituted pyrazolopyridines and salts thereof, pharmaceutical compositions comprising same, methods of preparing same and uses of same” (Bayer Schering Pharma AG, priority 2006, dated 2010)

Experiments:
Tie2 [1] = target: T1, Tie2 (Homo sapiens, UniProt Q02763); assay: Tie2 ELISA assay (assay 1): cellular Tie2 autophosphorylation in Tie2-transfected CHO cells stimulated by angiopoietin-2; type: cell-based; set-up: expressed in transfected cells; host or cells: CHO (DHFR-deficient), stably transfected: CHO Tie2/DHFR; details: CHO Tie2/DHFR cells, Ang2 stimulated, Tie2 autophosphorylation sandwich-ELISA; pIC50 = -log IC50 molar; read-out: Tie 2 activity (assay 1)
Protocol: Cellular activity of compounds of the present invention as inhibitors of Tie2 kinase activity was measured employing a Tie2 ELISA assay as described in the following paragraphs. Herein CHO cell-cultures, which are stably transfected by known techniques with Tie2 using DHFR deficiency as selection marker, are stimulated by angiopoietin-2. The specific autophosphorylation of Tie2 receptors is quantified with a sandwich-ELISA using anti-Tie2 antibodies for catch and anti-phosphotyrosine antibodies coupled to HRP for detection.
• 96 well tissue culture plate, sterile, Greiner • 96 well FluoroNunc plate MaxiSorp Surface C, Nunc • 96 well plate polypropylene for compound dilution in DMSO • CHO Tie2/DHFR (transfected cells) • PBS−; PBS++, DMSO • MEM alpha Medium with Glutamax-I without Ribonucleosides and • Deoxyribonucleosides (Gibco #32561-029) • with 10% FCS after dialysis! and 1% PenStrep • Lysis buffer: 1 Tablet “Complete” protease inhibitor • 1 cap Vanadate (1 mL>40 mg/mL; working solution 2 mM) • ad 50 mL with Duschl-Puffer • pH 7.6 • Anti-Tie2-antibody 1:425 in Coating Buffer pH 9.6 • Stock solution: 1.275 mg/mL>working: 3 μg/mL • PBST: 2 bottles PBS(10×)+10 ml Tween, fill up with VE-water • RotiBlock 1:10 in VE-water • Anti-Phosphotyrosine HRP-Conjugated 1:10000 in 3% TopBlock • 3% TopBlock in PBST • BM Chemiluminescence ELISA Substrate (POD) • solution B1:100 solution A • SF9 cell culture medium • Ang2-Fc in SF9 cell culture medium Cell Experiment: • Dispense 5×10^4 cells/well/98 μL in 96 well tissue culture plate • Incubate at 37° C./5% CO2 • After 24 h add compounds according to desired concentrations • Add also to control and stimulated values without compounds 2 μL DMSO • And mix for a few min at room temperature • Add 100 μL Ang2-Fc to all wells except control, which receives insect medium • Incubate 20 min at 37° C. • Wash 3× with PBS++ • Add 100 μl Lysis buffer/well and shake a couple of min at room temperature • Store lysates at 20° C. before utilizing for the ELISA Performance of Sandwich-ELISA • Coat 96 well FluoroNunc Plate MaxiSorp Surface C with anti-Tie2 mAb • 1:425 in Coating buffer pH 9.6; 100 μL/well overnight at 4° C. • Wash 2× with PBST • Block plates with 250 μL/well RotiBlock 1:10 in VE-water • Incubate for 2 h at room temperature or overnight at 4° C. shaking • Wash 2× in PBST • Add thawed lysates to wells and incubate overnight shaking at 4° C. • Wash 2× with PBST • Add 100 μL/well anti-Phosphotyrosine HRP-Conjugated 1:10000 in 3% • TopBlock (3% TopBlock in PBST) and incubate overnight under shaking • Wash 6× with PBST • Add 100 μL/well BM Chemiluminescence ELISA Substrate (POD) • solutions 1 und 2 (1:100) • Determine luminescence with the LumiCount. Assay 2: Tie-2-Kinase HTRF-Assay without Kinase Preactivation
Target sequence in this assay (Q02763 23-1124): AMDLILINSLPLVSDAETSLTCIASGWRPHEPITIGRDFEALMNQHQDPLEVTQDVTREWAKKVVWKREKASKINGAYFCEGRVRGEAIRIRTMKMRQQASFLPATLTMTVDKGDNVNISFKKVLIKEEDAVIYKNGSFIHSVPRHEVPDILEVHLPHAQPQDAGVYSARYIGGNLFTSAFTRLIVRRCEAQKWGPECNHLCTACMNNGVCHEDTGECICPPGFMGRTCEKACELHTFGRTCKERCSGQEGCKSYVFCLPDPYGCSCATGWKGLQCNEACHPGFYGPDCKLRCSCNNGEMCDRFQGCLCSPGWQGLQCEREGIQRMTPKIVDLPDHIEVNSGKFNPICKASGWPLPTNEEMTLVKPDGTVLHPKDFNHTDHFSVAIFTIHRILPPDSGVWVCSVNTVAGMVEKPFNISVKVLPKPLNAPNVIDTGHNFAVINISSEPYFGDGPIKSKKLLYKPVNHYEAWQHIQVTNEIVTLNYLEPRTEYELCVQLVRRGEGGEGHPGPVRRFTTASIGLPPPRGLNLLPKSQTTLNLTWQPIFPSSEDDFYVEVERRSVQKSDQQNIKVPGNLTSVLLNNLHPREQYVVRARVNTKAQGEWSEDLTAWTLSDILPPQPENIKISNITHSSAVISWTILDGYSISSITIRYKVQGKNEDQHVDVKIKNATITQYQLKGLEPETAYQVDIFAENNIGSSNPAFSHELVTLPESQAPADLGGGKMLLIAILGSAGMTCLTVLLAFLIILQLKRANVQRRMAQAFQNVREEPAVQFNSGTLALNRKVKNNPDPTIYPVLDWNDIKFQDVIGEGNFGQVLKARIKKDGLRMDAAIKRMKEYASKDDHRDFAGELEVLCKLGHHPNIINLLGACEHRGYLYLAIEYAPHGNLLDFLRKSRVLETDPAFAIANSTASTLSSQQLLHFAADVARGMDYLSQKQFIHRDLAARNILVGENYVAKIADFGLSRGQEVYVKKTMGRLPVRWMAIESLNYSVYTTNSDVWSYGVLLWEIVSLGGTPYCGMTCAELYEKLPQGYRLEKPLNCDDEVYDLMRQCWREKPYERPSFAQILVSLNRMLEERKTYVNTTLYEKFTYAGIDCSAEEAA

Tie2 [2] = target: T1, Tie2; assay: Tie-2-Kinase HTRF-Assay without kinase preactivation (assay 2); type: biochemical; set-up: fusion protein of GST and the intracellular domains of Tie-2; GST; made in house; host or cells: insect cells (Hi-5); details: GST-Tie-2 without preactivation, 10 μM ATP; pIC50 = -log IC50 molar
Text: Tie2-inhibitory activity of compounds of the present invention was quantified employing two Tie2 HTRF assay as described in the following paragraphs.
A recombinant fusion protein of GST and the intracellular domains of Tie-2, expressed in insect cells (Hi-5) and purified by Glutathion-Sepharose affinity chromatography was used as kinase. Alternatively, commercially available GST-Tie2-fusion protein (Upstate Biotechnology, Dundee, Scotland) can be used As substrate for the kinase reaction the biotinylated peptide biotin-Ahx-EPKDDAYPLYSDFG (C-terminus in amid form) was used which can be purchased e.g. from the company Biosynthan GmbH (Berlin-Buch, Germany). Detection of phosphorylated product is achieved specifically by a trimeric detection complex consisting of the phosphorylated substrate, streptavidin-XLent (SA-XLent) which binds to biotin, and Europium Cryptate-labeled anti-phosphotyrosine antibody PT66 which binds to phosphorylated tyrosine.
Tie-2 (3.5 ng/measurement point) was incubated for 60 min at 22° C. in the presence of 10 μM adenosine-tri-phosphate (ATP) and 1 μM substrate peptide (biotin-Ahx-EPKDDAYPLYSDFG-NH2) with different concentrations of test compounds (0 μM and concentrations in the range 0.001-20 μM) in 5 μl assay buffer [50 mM Hepes/NaOH pH 7, 10 mM MgCl2, 0.5 mM MnCl2, 1.0 mM dithiothreitol, 0.01% NP40, protease inhibitor mixture (“Complete w/o EDTA” from Roche, 1 tablet per 2.5 ml), 1% (v/v) dimethylsulfoxide]. The reaction was stopped by the addition of 5 μl of an aqueous buffer (25 mM Hepes/NaOH pH 7.5, 0.28% (w/v) bovine serum albumin) containing EDTA (90 mM) and the HTRF (Homogeneous Time Resolved Fluorescence) detection reagents streptavidine-XLent (0.2 μM, from Cis Biointernational, Marcoule, France) and PT66-Eu-Chelate (0.3 ng/μl; a europium-chelate labelled anti-phospho-tyrosine antibody from Perkin Elmer).
The resulting mixture was incubated 1 h at 22° C. to allow the binding of the biotinylated phosphorylated peptide to the streptavidine-XLent and the PT66-Eu-Chelate. Subsequently the amount of phosphorylated substrate peptide was evaluated by measurement of the resonance energy transfer from the PT66-Eu-Chelate to the streptavidine-XLent. Therefore, the fluorescence emissions at 620 nm and 665 nm after excitation at 350 nm was measured in a HTRF reader, e.g. a Rubystar (BMG Labtechnologies, Offenburg, Germany) or a Viewlux (Perkin-Elmer). The ratio of the emissions at 665 nm and at […] was taken as the measure for the amount of phosphorylated substrate peptide. The data were normalised (enzyme reaction without inhibitor=0% inhibition, all other assay components but no enzyme=100% inhibition) and IC50 values were calculated by a 4 parameter fit using an inhouse software.
Target sequence in this assay (Q02763 770-1124 limits assumed): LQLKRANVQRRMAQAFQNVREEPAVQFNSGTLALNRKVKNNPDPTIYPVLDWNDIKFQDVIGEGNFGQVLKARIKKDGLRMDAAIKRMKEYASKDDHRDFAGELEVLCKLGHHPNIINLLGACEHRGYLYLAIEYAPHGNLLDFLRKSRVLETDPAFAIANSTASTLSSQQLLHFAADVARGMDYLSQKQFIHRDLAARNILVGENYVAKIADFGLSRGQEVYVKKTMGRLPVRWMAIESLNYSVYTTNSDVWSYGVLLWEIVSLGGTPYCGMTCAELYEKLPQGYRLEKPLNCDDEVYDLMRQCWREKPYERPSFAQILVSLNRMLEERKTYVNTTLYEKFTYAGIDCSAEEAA

SMILES | IC50 (Tie2 [1]) | IC50 (Tie2 [2]) | melting point
CC(C)c1cc(-c2ccc(NC(=O)Nc3cccc(C(F)(F)F)c3)cc2)c2cnn(CCCN3CCOCC3)c2n1 [1.25, 1-{4-[6-Isopropyl-1-(3-morpholin-4-yl-propyl)-1H-pyrazolo[3,4-b]pyridin-4-yl]-phenyl}-3-(3-trifluoromethyl-phenyl)-urea] | < 501 nM | 1000 to 10000 nM | –
Cn1ncc2c(-c3ccc(NC(=O)Nc4cccc(C(F)(F)F)c4)cc3)cc(C3(C(=O)N4CCCC4)CC3)nc21 [1.27, 1-(4-{1-Methyl-6-[1-(pyrrolidine-1-carbonyl)-cyclopropyl]-1H-pyrazolo[3,4-b]pyridin-4-yl}-phenyl)-3-(3-trifluoromethyl-phenyl)-urea] | < 501 nM | < 501 nM | –
Cc1cc(-c2ccc(NC(=O)Nc3cc(C(F)(F)F)ccc3N3CCCC3)cc2)c2cnn(C)c2n1 [2.8, 1-[4-(1,6-Dimethyl-1H-pyrazolo[3,4-b]pyridin-4-yl)-phenyl]-3-(2-pyrrolidin-1-yl-5-trifluoromethyl-phenyl)-urea] | – | – | 236 °C
